pKi: −log10 of the molar value. Structures can show the parent of a compound that is named as a salt.
Target: T1, Recombinant human M3 receptor (Homo sapiens, UniProt P20309)
T1 construct: expressed in transfected cells; host or cells: CHO-K1 cells (membranes)
Test: biochemical
Type: binding
Settings: SPA format; read-out: M3 Ki (SPA format)

T1 sequence (P20309 whole entry): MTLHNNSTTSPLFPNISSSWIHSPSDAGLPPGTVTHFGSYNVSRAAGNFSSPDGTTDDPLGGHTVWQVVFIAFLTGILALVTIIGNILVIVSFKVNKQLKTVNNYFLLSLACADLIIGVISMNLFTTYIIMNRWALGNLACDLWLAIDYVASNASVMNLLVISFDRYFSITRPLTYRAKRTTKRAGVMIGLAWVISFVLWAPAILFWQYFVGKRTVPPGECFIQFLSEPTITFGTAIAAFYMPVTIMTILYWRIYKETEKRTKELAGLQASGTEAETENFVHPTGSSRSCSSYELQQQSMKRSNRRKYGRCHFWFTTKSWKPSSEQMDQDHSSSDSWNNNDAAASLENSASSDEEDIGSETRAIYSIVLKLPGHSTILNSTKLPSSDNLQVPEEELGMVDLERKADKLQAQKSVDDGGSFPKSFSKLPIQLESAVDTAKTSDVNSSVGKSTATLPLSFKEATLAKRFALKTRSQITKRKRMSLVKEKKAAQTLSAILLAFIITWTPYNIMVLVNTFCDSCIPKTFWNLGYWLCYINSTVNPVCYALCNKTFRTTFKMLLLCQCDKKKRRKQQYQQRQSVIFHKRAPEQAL

Going from `O=C(N[C@@H]1C[N+]2(Cc3cnc([C@](O)(c4ccccc4)C4CCCCC4)o3)CCC1CC2)c1ccc(Cl)cc1` [Example 19, (S)-3-(4-chloro-benzoylamino)-1-[2-((R)-cyclohexyl-hydroxy-phenyl-methyl)-oxazol-5-ylmethyl]-1-azonia-bicyclo[2.2.2]octane; formate] to `O=C(N[C@H]1C[N+]2(Cc3cnc([C@](O)(c4ccccc4)C4CCCCC4)o3)CCC1CC2)c1ccccc1` [Example 13, (R)-3-benzoylamino-1-[2-((R)-cyclohexyl-hydroxy-phenyl-methyl)-oxazol-5-ylmethyl]-1-azonia-bicyclo[2.2.2]octane; formate], the pKi falls from greater than 8.30 to less than 7.70.

`OC(c1ccccc1)(c1ccccc1)c1noc(C[N+]23CCC(CC2)[C@@H](Oc2ccc4c(c2)OCO4)C3)n1` [Example 135, (R)-3-(Benzo[1,3]dioxol-5-yloxy)-1-[3-hydroxy-diphenyl-methyl)-[1,2,4]oxadiazol-5-ylmethyl]-1-azonia-bicyclo[2.2.2]octane; chloride] and `OC(c1ccccc1)(c1ccccc1)c1noc(C[N+]23CCC(CC2)[C@@H](Oc2cccc(F)c2)C3)n1` [Example 94, (R)-3-(3-Fluoro-phenoxy)-1-[3-(hydroxy-diphenyl-methyl)-[1,2,4]oxadiazol-5-ylmethyl]-1-azonia-bicyclo[2.2.2]octane; chloride] cannot be ordered by pKi: greater than 8.30 for the first, greater than 8.30 for the second.

`N#Cc1ccc(CO[C@H]2C[N+]3(Cc4cnc([C@](O)(c5ccccc5)C5CCCCC5)o4)CCC2CC3)cc1` [Example 21, (R)-3-(4-cyano-benzyloxy)-1-[2-((R)-cyclohexyl-hydroxy-phenyl-methyl)-oxazol-5-ylmethyl]-1-azonia-bicyclo[2.2.2]octane; formate] and `O[C@](c1ccccc1)(c1ncc(C[N+]23CCC(CC2)[C@@H](OCc2ccc(C(F)(F)F)cc2)C3)o1)C1CCCCC1` [Example 33, (R)-1-[2-((R)—Cyclohexyl-hydroxy-phenyl-methyl)-oxazol-5-ylmethyl]-3-(4-trifluoromethyl-benzyloxy)-1-azonia-bicyclo[2.2.2]octane; bromide] cannot be ordered by pKi: greater than 8.30 for the first, greater than 8.30 for the second.

`O[C@](c1ccccc1)(c1ncc(C[N+]23CCC(COc4ccccc4)(CC2)CC3)o1)C1CCCCC1` [Example 55, 1-[2 ((R)—Cyclohexyl-hydroxy-phenyl-methyl)-oxazol-5-ylmethyl]-4-phenoxymethyl-1-azonia-bicyclo[2.2.2]octane; bromide] and `O[C@](c1ccccc1)(c1ncc(C[N+]23CCC(CC2)[C@H](COc2ccccc2)C3)o1)C1CCCCC1` [Example 24, (S)-1-[2-((R)—Cyclohexyl-hydroxy-phenyl-methyl)-oxazol-5-ylmethyl]-3-phenoxymethyl-1-azonia-bicyclo[2.2.2]octane; bromide] cannot be ordered by pKi: greater than 8.30 for the first, greater than 8.30 for the second.

`OC(c1ccccc1)(c1ncc(C[N+]23CCC(CC2)[C@@H](OCc2ccccc2)C3)o1)C1CCCCCCC1` (single isomer, unassigned) [Example 48, formate] and `O[C@](c1ccccc1)(c1ncc(C[N+]23CCC(CC2)[C@@H](OCc2ccccc2)C3)o1)C1CCCCC1` [Example 12, (R)-3-(Benzyloxy)-1-[2-(R)-cyclohexyl-hydroxy-phenyl-methyl)-oxazol-5-ylmethyl]-1-azonia-bicyclo[2.2.2]octane; bromide] cannot be ordered by pKi: greater than 8.30 for the first, greater than 8.30 for the second.

`OC(c1ccccc1)(c1cc(C[N+]23CCC(CC2)[C@@H](OCc2ccccc2)C3)on1)C1CCCCC1` (single isomer, unassigned) [Example 31, formate] and `OC(c1ccccc1)(c1cc(C[N+]23CCC(CC2)[C@@H](SCc2ccccc2)C3)on1)C1CCCCC1` (single isomer, unassigned) [Example 126] cannot be ordered by pKi: greater than 8.30 for the first, greater than 8.30 for the second.

`OC(c1ccccc1)(c1noc(C[N+]23CCC(CC2)[C@@H](CSc2ccccc2)C3)n1)C1CCCCC1` (single isomer, unassigned) [Example 132] and `OC(c1ccccc1)(c1noc(C[N+]23CCC(CC2)[C@H](COc2ccccc2)C3)n1)C1CCCCC1` (single isomer, unassigned) [Example 144] cannot be ordered by pKi: greater than 8.30 for the first, greater than 8.30 for the second.

First: OC(c1ccccc1)(c1ccccc1)c1ncc(C[N+]23CCC(CC2)[C@@H](Sc2cccc(F)c2)C3)o1 [Example 98, (R)-3-(3-Fluoro-phenylsulfanyl)-1-[2-(hydroxy-diphenyl-methyl)-oxazol-5-ylmethyl]-1-azonia-bicyclo[2.2.2]octane; bromide]
Second: OC(c1ccccc1)(c1ccccc1)c1ncc(C[N+]23CCC(CC2)C(SCc2ccccc2)C3)o1 (stereo not shown) [Example 39, 3-Benzylsulfanyl-1-[2-(hydroxy-diphenyl-methyl)-oxazol-5-ylmethyl]-1-azonia-bicyclo[2.2.2]octane; bromide,]
The pKi of the first is higher: greater than 8.30 for the first, 7.70 to 8.30 for the second. The first binds more tightly here.

Going from `O[C@](c1ccccc1)(c1ncc(C[N+]23CCC(CC2)[C@@H](Oc2ccccc2)C3)o1)C1CCCCC1` [Example 9, (R)-[2-((R)—Cyclohexyl-hydroxy-phenyl-methyl)-oxazol-5-ylmethyl]-3-phenoxy-1-azonia-bicyclo[2.2.2]octane; bromide] to `O[C@@](c1ccccc1)(c1ncc(C[N+]23CCC(CC2)[C@H](Oc2ccccc2)C3)o1)C1CCCCC1` [Example 6, (S)-1-[2-((S)—Cyclohexyl-hydroxy-phenyl-methyl)-oxazol-5-ylmethyl]-3-phenoxy-1-azonia-bicyclo[2.2.2]octane bromide], the pKi falls from greater than 8.30 to less than 7.70.

`Cc1ccc(O[C@H]2C[N+]3(Cc4cnc([C@](O)(c5ccccc5)C5CCCCC5)o4)CCC2CC3)cc1Cl` [Example 60, (R)-3-(3-Chloro-4-methyl-phenoxy)-1-[2-((R)-cyclohexyl-hydroxy-phenyl-methyl)-oxazol-5-ylmethyl]-1-azonia-bicyclo[2.2.2]octane; bromide] and `O[C@](c1ccccc1)(c1ncc(C[N+]23CCC(CC2)[C@@H](OCc2ccc(Cl)c(Cl)c2)C3)o1)C1CCCC1` [Example 45, (R)-1-[2-((R)-cyclopentyl-hydroxy-phenyl-methyl)-oxazol-5-ylmethyl]-3-(3,4-dichloro-benzyloxy)-1-azonia-bicyclo[2.2.2]octane; formate] cannot be ordered by pKi: greater than 8.30 for the first, greater than 8.30 for the second.

`O[C@](c1ccccc1)(c1ncc(C[N+]23CCC(CC2)C(COc2ccc(F)cc2)C3)o1)C1CCCCC1` (single isomer, unassigned) [Example 82] and `O[C@](c1ccccc1)(c1ncc(C[N+]23CCC(CC2)[C@@H](Sc2cccc(F)c2)C3)o1)C1CCCCC1` [Example 105, (R)-1-[2-((R)—Cyclohexyl-hydroxy-phenyl-methyl)-oxazol-5-ylmethyl]-3-(3-fluoro-phenylsulfanyl)-1-azonia-bicyclo[2.2.2]octane; bromide] cannot be ordered by pKi: greater than 8.30 for the first, greater than 8.30 for the second.

`OC(c1ccccc1)(c1cc(C[N+]23CCC(CC2)C(COc2ccccc2)C3)on1)C1CCCCC1` (single isomer, unassigned) [Example 91] and `O[C@](c1ccccc1)(c1ncc(C[N+]23CCC(CC2)[C@@H](SCc2ccccc2)C3)o1)C1CCCCC1` [Example 41, (R)-3-Benzylsulfanyl-1-[2-((R)-cyclohexyl-hydroxy-phenyl-methyl)-oxazol-5-ylmethyl]-1-azonia-bicyclo[2.2.2]octane; bromide] cannot be ordered by pKi: greater than 8.30 for the first, greater than 8.30 for the second.

`OC(c1ccccc1)(c1ccccc1)c1ncc(C[N+]23CCC(CC2)[C@@H](OCc2ccccc2)C3)o1` [Example 27, (R)-3-Benzyloxy-1-[2-(hydroxy-diphenyl-methyl)-oxazol-5-ylmethyl]-1-azonia-bicyclo[2.2.2]octane; bromide] and `OC(c1ccccc1)(c1ccccc1)c1ncc(C[N+]23CCC(CC2)[C@@H](Oc2cccc(Cl)c2)C3)o1` [Example 62, (R)-3-(3-Chloro-phenoxy)-1-[2-(hydroxy-diphenyl-methyl)-oxazol-5-ylmethyl]-1-azonia-bicyclo[2.2.2]octane; bromide] cannot be ordered by pKi: greater than 8.30 for the first, greater than 8.30 for the second.

`C=CCOCC1C[N+]2(Cc3cnc([C@](O)(c4ccccc4)C4CCCCC4)o3)CCC1CC2` (single isomer, unassigned) [Example 89, formate] and `C=CCO[C@H]1C[N+]2(Cc3cnc([C@](O)(c4ccccc4)C4CCCCC4)o3)CCC1CC2` [Example 51, (R)-3-allyloxy-1-[2-((R)-cyclohexyl-hydroxy-phenyl-methyl)-oxazol-5-ylmethyl]-1-azonia-bicyclo[2.2.2]octane; formate] cannot be ordered by pKi: greater than 8.30 for the first, greater than 8.30 for the second.

`OC(c1ccccc1)(c1ccccc1)c1ncc(C[N+]23CCC(CC2)[C@@H](Oc2ccc(F)c(Cl)c2)C3)o1` [Example 76, (R)-3-(3-chloro-4-fluoro-phenoxy)-1-[2-(hydroxy-diphenyl-methyl)-oxazol-5-ylmethyl]-1-azonia-bicyclo[2.2.2]octane; bromide] and `Cc1ccc(O[C@H]2C[N+]3(Cc4cnc(C(O)(c5ccccc5)c5ccccc5)o4)CCC2CC3)cc1` [Example 58, (R)-1-[2-(Hydroxy-diphenyl-methyl)-oxazol-5-ylmethyl]-3-p-tolyloxy-1-azonia-bicyclo[2.2.2]octane; bromide] cannot be ordered by pKi: greater than 8.30 for the first, greater than 8.30 for the second.

`O[C@](c1ccccc1)(c1ncc(C[N+]23CCC(CC2)[C@@H](OCc2ccsc2)C3)o1)C1CCCCC1` [Example 46, (R)-1-[2-((A)-Cyclohexyl-hydroxy-phenyl-methyl)-oxazol-5-ylmethyl]-3-(thiophen-3-ylmethoxy)-1-azonia-bicyclo[2.2.2]octane; bromide] and `O[C@](c1ccccc1)(c1nnc(C[N+]23CCC(CC2)[C@@H](Oc2cccc(F)c2)C3)o1)C1CCCCC1` [Example 134, (R)-1-[5-((R)—Cyclohexyl-hydroxy-phenyl-methyl)-[1,3,4]oxadiazol-2-ylmethyl]-3-(3-fluoro-phenoxy)-1-azonia-bicyclo[2.2.2]octane; bromide] cannot be ordered by pKi: greater than 8.30 for the first, greater than 8.30 for the second.

First: OC(c1ccccc1)(c1ccccc1)c1ncc(C[N+]23CCC(CC2)[C@@H](Oc2ccc(C(F)(F)F)cc2)C3)o1 [Example 57, (R)-1-[2-(Hydroxy-diphenyl-methyl)-oxazol-5-ylmethyl]-3-(4-trifluoromethyl-phenoxy)-1-azonia-bicyclo[2.2.2]octane; bromide]
Second: OC(c1ccccc1)(c1ccccc1)c1noc(C[N+]23CCC(CC2)[C@@H](Oc2ccsc2)C3)n1 [Example 115, (R)-1-[3-(Hydroxy-diphenyl-methyl)-[1,2,4]oxadiazol-5-ylmethyl]-3-(thiophen-3-yloxy)-1-azonia-bicyclo[2.2.2]octane; chloride]
The pKi of the first is lower: 7.70 to 8.30 for the first, greater than 8.30 for the second.

From US20100056565A1, “Heterocyclic Derivatives as M3 Muscarinic Receptors” (priority 2007, published 2010)
